Laboratory results from patent US5618791A, “Memory enhancing peptides” (Shanghai Institute of Biochemistry, priority 1992, dated 1997).
Square brackets hold non-standard residues; d marks the D form. Ends that are not written are not given here. Peptide text beside a SMILES is read from it. pGlu = O=C1CC[C@@H](C(=O)O)N1; Hme = not defined here

Key:
adult rats [1] = assay: Passive avoidance response of adult rats, step-through one trial learning test in a shuttle box; assay type: in vivo
Protocol: (§1) Biological activities of MEPs of the invention are confirmed by bioassay. Blood pressure measurements and urine output measurements were performed on adult rats after intravenous administration of MEPs under ether anesthesia. Passive avoidance behavior of adult rats was carried out in a step-through one trial learning test in a shuttle box, and brightness discrimination tests were performed in a radiant Y maze. Rats neonatally administered with MEPs of the invention were trained during an immature period and subsequently tested as adults.
(§2) Memory enhancing responses were assessed by two kinds of behavioral records, i.e., passive avoidance response of adult rats in a shuttle box and the performance in a radiant Y maze in the acquisition and retention of brightness discrimination of rats neonatally administered. The results are set out in Table I. All MEPs of the invention show significant positive behavioral responses when rats have received a subcutaneous administration of MEP within the dosage range 1 ng-1 μg per animal. MEPs of the invention show a memory enhancing potency 10-100 times that of AVP.

adult rats [2] = settings: cited from earlier work
rats = assay: Brightness discrimination test in a radiant Y maze; assay type: in vivo, rat; settings: adult rats; oral 20 μg/kg/day for 30 days
Protocol: as §1, §2
Additionally, oral administration of NLPR to adult rats at a dose of 20 μg/kg/day for 30 days produced a positive brightness discrimination assay.

Row | Compound | Passive Avoidance adult rat effective dose (adult rats [1]) | acquisition of active or passive avoidance responses (adult rats [2]) | extinction of active or passive avoidance responses (adult rats [2]) | brightness discrimination assay (rats)
1 | ZN(Hme)PR: pyroglutamyl-Asn-Hme-Pro-Arg; Hme = Homomethionine (Smethylcysteine) ([pGlu]N[Hme]PR; reading uncertain; also: printed as ZN(Hme)PR) | 10-100 ng/200 g body wt. |  |  | 
2 | CC(C)C[C@H](NC(=O)[C@H](CC(N)=O)NC(=O)[C@@H]1CCC(=O)N1)C(=O)N1CCC[C@H]1C(=O)N[C@@H](CCCNC(=N)N)C(=O)O [ZNLPR] ([pGlu]NLPR-OH) | 10 ng/200 g body wt. |  |  | 
3 | NC(=O)CC[C@@H]1NC(=O)[C@H](Cc2ccccc2)NC(=O)[C@H](Cc2ccc(O)cc2)NC(=O)[C@@H](N)CSSC[C@@H](C(=O)N2CCC[C@H]2C(=O)N[C@@H](CCCN=C(N)N)C(=O)NCC(N)=O)NC(=O)[C@H](CC(N)=O)NC1=O [AVP, arginine vasopressin] | 300-1000 ng/200 g body wt. | no effect | retarded | 
4 | CC(C)C[C@H](NC(=O)[C@@H](N)CC(N)=O)C(=O)N1CCC[C@H]1C(=O)N[C@@H](CCCNC(=N)N)C(=O)O [NLPR] (H-NLPR-OH) | 3-10 ng/200 g body wt. |  |  | positive
5 | CC(=O)N[C@@H](CC(N)=O)C(=O)N[C@@H](CC(C)C)C(=O)N1CCC[C@H]1C(=O)N[C@@H](CCCNC(=N)N)C(N)=O [AcNLPR--NH2] (Ac-NLPR-NH2) | 3-10 ng/200 g body wt. |  |  | 
